Ends that are not written are not given here.
Columns and labels:
(His)6-sNASP = assay: Pulldown of MBP-H3 fusions by (His)6-sNASP (epitope mapping); type: binding, human; details: MBP fusions from whole cell bacterial extracts; Nickel-NTA beads; SDS-PAGE, Coomassie
Protocol: (§1) Protein was eluted in the same buffer with 250 mM imidazole, but without protease inhibitors. The (His)6 tag was cleaved overnight by TEV protease, whilst concomitantly dialysing to 100 mM sodium chloride, 20 mM Tris–HCl pH 8.0, 1 mM EDTA and 5 mM dithiothreitol. Cleaved protein was further purified by ion-exchange using a ResourceQ column (GE Healthcare) before gel filtration chromatography in 200 mM sodium chloride, 20 mM Hepes-KOH pH 7.6 and 1 mM EDTA using a 26/60 Superdex 200 column (GE Healthcare). The purified protein was concentrated and stored in aliquots at −80°C. Homologues, truncations and point mutants of sNASP were expressed and purified using the same method. MBP-H3 peptide fusions were expressed in bacteria and used as whole cell extracts (epitope mapping) or purified over a Dextrin Sepharose column (GE Healthcare) in one-step purification in 0.5 M sodium chloride, 20 mM Hepes-KOH pH 7.6, 1 mM EDTA and 5 mM dithiothreitol. Concentrated protein was dialysed against 200 mM sodium chloride, 20 mM Hepes-KOH, 1 mM EDTA and 5 mM dithiothreitol and stored in aliquots at −80°C.
Mutations were made in the MBP H3 116–135 construct using a mixture of site-direct mutagenesis and oligo ligation. Whole cell extracts were prepared from bacteria and used as inputs for the pulldown experiments with (His)6-sNASP pre-bound to Nickel-NTA beads (GE Healthcare).

sNASP [1] = assay: Isothermal titration calorimetry, sNASP titrated into MBP H3 116–135; design: species or system human; details: one-site binding model
Protocol: Isotherms were analysed by the software NITPIC and SEDPHAT ([43]) and plotted using the software GUSSI.

sNASP [2] = assay: Analytical gel filtration, sNASP + MBP H3 116–135; type: binding, human; details: Superdex S200; 20 mM Hepes-KOH pH 7.5, 200 mM NaCl
Protocol: (§2) Analytical gel filtration was carried out using a Superdex S200 10/300 Gl column (GE Healthcare) in 20 mM Hepes-KOH pH 7.5 and 200 mM sodium chloride, unless otherwise stated. 0.5 ml fractions were collected encompassing the void (7 ml) and bed (21 ml) volumes of the column. Fractions were separated by SDS-PAGE and stained with Coomassie Brilliant Blue (SERVA).

[3] = test system: sNASP homologue from Arabidopsis thaliana; assay: Pulldown of MBP H3 116–135 by A. thaliana sNASP homologue; type: binding; details: (His)6-tagged recombinant homologue
Protocol: as §1
(§3) Mutations were made in the MBP H3 116–135 construct using a mixture of site-direct mutagenesis and oligo ligation. Whole cell extracts were prepared from bacteria and used as inputs for the pulldown experiments with (His)6-sNASP pre-bound to Nickel-NTA beads (GE Healthcare). […]

Sim3 [4] = assay: Pulldown of MBP H3 116–135 by Sim3; type: binding, Schizosaccharomyces pombe; details: (His)6-tagged recombinant homologue
Protocol: as §1, §3

[5] = test system: sNASP homologue from Chaetomium thermophilum; assay: Pulldown of MBP H3 116–135 by C. thermophilum sNASP homologue; type: binding; details: (His)6-tagged recombinant homologue
Protocol: as §1, §3

Hif1 = assay: Pulldown of MBP H3 116–135 by Hif1; type: binding, Saccharomyces cerevisiae; details: (His)6-tagged recombinant homologue
Protocol: as §1, §3

Sim3 [6] = assay: Gel filtration, Sim3 + MBP H3 116–135; type: binding, Schizosaccharomyces pombe; details: Superdex S200; 20 mM Hepes-KOH pH 7.5, 200 mM NaCl
Protocol: as §2

Hif1-GST = assay: Gel filtration, Hif1-GST + MBP H3 116–135; type: binding, Saccharomyces cerevisiae; details: Superdex S200; 20 mM Hepes-KOH pH 7.5, 200 mM NaCl; Hif1 GST tagged
Protocol: as §2

sNASP [7] = assay: Fluorescence-2-hybrid (F2H) assay at LacO array, EGFP-sNASP; type: cell-based, human; details: U2OS cells, LacO (256×) array, mCherry-LacI-histone constructs, live cells
Protocol: For all the F2H assays, we used human U2OS cells harbouring the stably integrated lacO (256×) array described earlier ([44]), except for mitochondrial F2H, which was carried out on U2OS cells without an integrated array. F2H assays were essentially performed as previously described in ([45],[46]) and ([44]). Image analysis was manually performed with ImageJ image analysis software. Fluorescence intensity at the LacI array was calculated as a percentage increase over the nucleoplasm. Assignment of the LacO array and nucleoplasm were done manually. Twenty cells were counted for statistical analysis so as not to inflate the calculated P-value. Only cells in which a clearly discernable array was present were counted. For the mitochondrial F2H, the first 70 residues of the outer mitochondrial membrane protein TOM70 were cloned onto the N-terminus of mCherry. Full length H3 or H3 residues 116–135 was then cloned onto the C-terminus of mCherry to create a TOM70-mCherry-Histone triple fusion. Deleting residues 378–383 using standard site-directed mutagenesis techniques disrupted the nuclear localization sequence (NLS) of mEGFP-sNASP, resulting in its cytoplasmic expression.

125–135: H3 fragment fused to MBP (QLARRIRGERA; also: fused to MBP; UniProt P68431 126-136, looked up, fragment)
pulldown by (His)6-sNASP ((His)6-sNASP): pulled down efficiently

CENPA: homologous region of the CENPA variant of H3 from human (VTLFPKDVQLARRIRGLEE; UniProt P49450 119-137, looked up, fragment)
pulldown by (His)6-sNASP ((His)6-sNASP): able to pull down

MBP H3 116–135: C-terminal 20 residues of H3 fused to MBP
stoichiometry in words (sNASP [1]; partial degradation likely caused underestimated ratios): close to 1:1 stoichiometry | Kd (sNASP [1]; range of n = 3 with varying cell and titrant concentrations, read-out: dissociation constant): 47 to 68 nM | pulldown by (His)6-sNASP ((His)6-sNASP): pulled down to near stoichiometric amounts | complex formation by gel filtration (sNASP [2]): form a stable complex | pulldown by A. thaliana homologue [3]: pulled down stoichiometric amounts | pulldown by S. pombe homologue (Sim3) (Sim3 [4]): pulled down stoichiometric amounts | pulldown by C. thermophilum homologue [5]: pulled down stoichiometric amounts | pulldown by S. cerevisiae homologue (Hif1) (Hif1): no pull down was observed | complex formation with Sim3 by gel filtration (Sim3 [6]): coeluted | complex formation with Hif1-GST by gel filtration (Hif1-GST): eluted in separate fractions

last 20 residues of H3: short region encompassing the last 20 residues of H3
interaction with sNASP in F2H assay (sNASP [7]): sufficient for binding

Reference: publication PMC4838342 (Nucleic Acids Research, 2015)
